# According to publication PMC5712521, “Dendrogenin A drives LXR to trigger lethal autophagy in cancers” (Nature Communications, 2017):
# Like-named read-outs stand apart in the source and are kept apart here.
# What was measured:
# SKMEL-28 cells [1] = experiment: Immunoblot densitometry (LC3-II); assay type: cell-based, human; conditions: 2.5 µM DDA; for LC3-II protein, densitometry relative to control: SKMEL-28, 24 h, 10 µM 22(R)HC, 100 nM TO; for LC3-II protein, densitometry relative to untreated / LC3-II protein, densitometry: 24 h
# Protocol: (§1) Immunoblotting was carried out as described previously. Proteins were separated on SDS-PAGE gels, electro-transferred onto polyvinylidene difluoride membranes and incubated overnight at 4 °C with the following antibodies: anti-Atg3, anti-Atg5 (D1G9), anti-Atg7 (D12B11), anti-Beclin (D40C5), anti-caspase-3 (Cell Signaling), anti-Bcl-2 (Millipore), anti-Bax (Millipore), anti-LC3 (Sigma-Aldrich), anti-LXRα (SantaCruz), anti-LXRβ (SantaCruz), anti-Nur77 (Active motif), anti-NOR1 (R&D systems), anti-PARP (Cell Signaling), anti-Vps34 (Cell Signaling), or anti-Actin (Millipore). For visualization, an ECL plus kit (Amersham Biosciences) was used, and chemiluminescence was measured by autoradiography (Supplementary Fig. 9). Specific bands were quantified with ImageQuant software.
# SKMEL-28 cells [2] = experiment: Sterol analysis by GC/MS; assay type: cell-based, human
# Protocol: Sterols in cell homogenates were extracted with a solvent mixture containing chloroform/methanol 2/1 (v/v) spiked with epicoprostanol as the internal standard. Lipids were partitioned in chloroform after the addition of saline and saponified by methanolic potassium hydroxide (0.5 N, 60 °C, 15 min). The fatty acids released were methylated with BF3-methanol (12%, 60 °C, 15 min) to not interfere with the chromatography of sterols. The sterols were re-extracted in hexane and silylated, as described previously. The trimethylsilylether derivatives of the sterols were separated by gas chromatography (GC) (Hewlett–Packard 6890 series) in a medium polarity capillary column RTX-65, (65% diphenyl 35% dimethyl polysiloxane, length 30 m, diameter 0.32 mm, film thickness 0.25 μm (Restesk, Evry, France)). The mass spectrometer (Agilent 5975 inert XL) in series with the GC was set up for the detection of positive ions. Ions were produced in the electron impact mode at 70 eV. Sterols were identified by the fragmentogram in the scanning mode and quantified by selective monitoring of the specific ions after normalization with the internal standard epicoprostanol and calibration with weighed standards. […]
# Quantification of sterols ac cum ulation in SKMEL- 2 8 c ells either expressing LXRβ (shCT L) or with LXRβ (sh3 or sh4LXR β) k nock ed down after 24 h treatm ent with 2.5 µ M DD A or solvent vehicle. Anal yses were perform ed by GC/MS. f Quantification of sterols accumulated in m elanom a cells after 24 h treatm ent with 10 µM 22(R) HC, 1 µ M GW , 100 nM T O or solvent […]
# vehicle. […]
# KG1 cells = experiment: Immunoblot densitometry; assay type: cell-based, human; conditions: 5 µM DDA; for LC3-II protein, densitometry relative to control: KG1, 24 h, 2 µM TO, 2 µM GW, 10 µM 22(R)HC
# Protocol: as §1
# Supplementary Fig. 6. […]
# D ata from b, f, g, h, j, p, q ar e the m eans ± S.E.M. of 3 independent experiments performed in triplicate (*P<0.05, **P<0.01, ***P<0.001, t test). Images are representative of 3 independent experim ents.
# Supplementary Fig. 7. a Im munoblots of Nur77 and NOR1 proteins in cells treated or not for 24 h with 5 µM DDA. b Real-time PCR of Nur77 and NOR1 expression in KG1 cells stably transfected with control shRNA (clone shCTRL) or with shRNA against LXRβ (clones sh3LXRβ and sh4LXRβ) and treated with 10 µM DDA for 24 h. c Immunoblots of Nur77 and NOR1 protein expression in KG1 cells stably transfected with control shRNA (clone shCTRL), shRNA against Nur77 (shNur77), shRNA against NOR1 (shNOR1), or shRNAs against both Nur77 and NOR1 (shNur77 + shNOR1). d NOD/SCID mice
# (n=16- 20 mice/group) engrafted with KG1 cells or HL60 cells were treated with DDA (20 mg/kg/day, i.p.) or solvent vehicle (control). Tumor growth was monitored over time and was analyzed for significance using repeated measures ANOVA (***P<0.001). The mean tumor volumes ± SEM are shown. e Average tumor weight at the end of the experiments in d. *P<0.5, **P<0.01, ANOVA. f Mean tumor volumes measured at the end of the experiments for HL60 and KG1 graf ted into NOD/SCID or NMRI-Fo x1 -nude mice treated with DDA (40 mg/kg/day, p.o. or 20 mg/kg/day, i.p.) or solvent vehicle (control) (n=10- 20 mice per group). Values represent the means ± S.E.M. (**P<0.01, ***P<0.001, ANOVA). g Histochemical analysis of the expression of LC3 and P62 in HL60 tumor sections isolated from NOD/SCID mice treated or not with DDA (20 mg/kg/day, i.p.). h Quantification of LC3 punctate cells in shCTRL and shLXRβ KG1 tumors. i Quantification of DDA levels in tumors 4 h after the final administration of DDA. j Box plot of TCGA RNA-seq data from patients with melanoma showing that LXRβ is the predominant LXR isoform expressed.
# ***P<0.001. k, l Immunoblotting of the indicated proteins in primary AML cells exposed to vehicle or 5 µM DDA for 24 h. m, n qPCR analysis of the expression of Nur77 and NOR1 in primary AML cells from 10 patients exposed to vehicle or DDA for 24 h. Bars represent S.E.M. (**P<0.01, ***P<0.001, t test). Data from b, h, i represent means ± S.E.M. of triplicate samples (>100 cell analyses per sample), **P<0.01, ***P<0.001, t test. All data or images are representative of 3 independent experiments.
# [3] = DDA concentrations in spleen and bone marrow; assay type: in vivo, NSG mice; conditions: NSG, mouse, ip, daily i.p. 20 mg/kg for 21 days
# Protocol: Bars represent S.E.M. ( ***P<0.001, **P<0.01, t test).
# (also on this page, place not known: plasma times treatment mice administration plasma times treatment mice administration mg/kg mg/kg Summary pharmacokinetic parameters mice. were measured daily administration mg/kg days. (***P<0.001, mg/kg DDA in plasma (p.o.) (p.o.) DDA in plasma (µM) i.p. i.v. (mg/kg) 20 T1/2 0.1 T1/2 elimination 1.0 T1/2 - Bioavailability (%EP) (µM) 370 Tmax 0.002 marrow 0.01 0.1 1 10 Control DDA DDA level (µM) ***)
# [4] = SKMEL-28 Sh3LXRβ, 2.5 µM DDA, 24 h
# [5] = SKMEL-28 Sh4LXRβ, 2.5 µM DDA, 24 h
# [6] = SKMEL-28 shCTRL, 2.5 µM DDA, 24 h
# [7] = SKMEL-28, 24 h, 10 µM 22(R)HC, 1 µM GW, 100 nM TO, GC/MS
smiles,measurement,setting,value
"CC(C)CCC[C@@H](C)[C@H]1CC[C@H]2[C@@H]3C[C@@H](NCCc4cnc[nH]4)[C@@]4(O)C[C@@H](O)CC[C@]4(C)[C@H]3CC[C@]12C [DDA, Dendrogenin A]","LC3-II protein, densitometry relative to control",SKMEL-28 cells [1],2.5
same,"LC3-II protein, densitometry relative to untreated",SKMEL-28 cells [1]; SKMEL-28 sh3LXRβ,2.1
same,"LC3-II protein, densitometry relative to untreated",SKMEL-28 cells [1]; SKMEL-28 sh4LXRβ,2.6
same,"LC3-II protein, densitometry relative to untreated",SKMEL-28 cells [1]; SKMEL-28 shCTRL,5.5
same,"LC3-II protein, densitometry",SKMEL-28 cells [1]; SKMEL-28 siATG7,1.1
same,"LC3-II protein, densitometry",SKMEL-28 cells [1]; SKMEL-28 siBECN1,1.3
same,"LC3-II protein, densitometry",SKMEL-28 cells [1]; SKMEL-28 siNOR1 + siNur77,3.2
same,"LC3-II protein, densitometry",SKMEL-28 cells [1]; SKMEL-28 siNOR1,2.2
same,"LC3-II protein, densitometry",SKMEL-28 cells [1]; SKMEL-28 siNur77,1.8
same,"LC3-II protein, densitometry",SKMEL-28 cells [1]; SKMEL-28 siVPS34,1.2
same,Sterol amount/total sterol: 7-DHC,SKMEL-28 cells [2]; [4],0.03± 0.02
same,Sterol amount/total sterol: 8-DHC,SKMEL-28 cells [2]; [4],1.52± 0.10
same,Sterol amount/total sterol: desmosterol,SKMEL-28 cells [2]; [4],0.01± 0.009
same,Sterol amount/total sterol: lathosterol,SKMEL-28 cells [2]; [4],0.71± 0.02
same,Sterol amount/total sterol: zymostenol,SKMEL-28 cells [2]; [4],5.78± 0.82
same,Sterol amount/total sterol: 7-DHC,SKMEL-28 cells [2]; [5],0.39± 0.09
same,Sterol amount/total sterol: 8-DHC,SKMEL-28 cells [2]; [5],4.32± 0.66
same,Sterol amount/total sterol: desmosterol,SKMEL-28 cells [2]; [5],0.02± 0.005
same,Sterol amount/total sterol: zymostenol,SKMEL-28 cells [2]; [5],6.57± 0.92
same,Sterol amount/total sterol: 7-DHC,SKMEL-28 cells [2]; [6],0.03± 0.006
same,Sterol amount/total sterol: 8-DHC,SKMEL-28 cells [2]; [6],5.81± 0.89
same,Sterol amount/total sterol: desmosterol,SKMEL-28 cells [2]; [6],0.01± 0.008
same,Sterol amount/total sterol: lathosterol,SKMEL-28 cells [2]; [6],0.41± 0.03
same,Sterol amount/total sterol: zymostenol,SKMEL-28 cells [2]; [6],2.60±0.07
same,"LC3-II protein, densitometry relative to control",KG1 cells,8.3
same,"ATG3 protein, densitometry relative to vehicle","KG1 cells; KG1, 24 h",2.1
same,"ATG5 protein, densitometry relative to vehicle","KG1 cells; KG1, 24 h",0.9
same,"ATG7 protein, densitometry relative to vehicle","KG1 cells; KG1, 24 h",1.2
same,"BECN1 protein, densitometry relative to vehicle","KG1 cells; KG1, 24 h",0.9
same,"NOR1 protein, densitometry relative to untreated","KG1 cells; KG1, 24 h",3.1
same,"Nur77 protein, densitometry relative to untreated","KG1 cells; KG1, 24 h",3.4
same,concentration at 21 days,"[3]; bone marrow, read-out: DDA concentration in the bone marrow",3480 ± 530 nM
same,concentration at 21 days,"[3]; spleen, read-out: DDA concentration in the spleen",1320 ± 30 nM
"CC(C)CC[C@@H](O)[C@@H](C)[C@H]1CC[C@H]2[C@@H]3CC=C4C[C@@H](O)CC[C@]4(C)[C@H]3CC[C@]12C [22(R)HC, 22(R)-hydroxycholesterol]","LC3-II protein, densitometry relative to control",SKMEL-28 cells [1],1
same,Sterol amount/total sterol: 8-DHC,SKMEL-28 cells [2]; [7],0.05± 0.03
same,Sterol amount/total sterol: zymostenol,SKMEL-28 cells [2]; [7],0.37± 0.07
same,"LC3-II protein, densitometry relative to control",KG1 cells,1.5
"O=S(=O)(c1ccccc1)N(CC(F)(F)F)c1ccc(C(O)(C(F)(F)F)C(F)(F)F)cc1 [TO, TO901317]","LC3-II protein, densitometry relative to control",SKMEL-28 cells [1],0.9
same,Sterol amount/total sterol: 8-DHC,SKMEL-28 cells [2]; [7],0.04± 0.02
same,Sterol amount/total sterol: zymostenol,SKMEL-28 cells [2]; [7],0.36± 0.08
same,"LC3-II protein, densitometry relative to control",KG1 cells,1.0
"O=C(O)Cc1cccc(OCCCN(Cc2cccc(C(F)(F)F)c2Cl)CC(c2ccccc2)c2ccccc2)c1 [GW, GW3965]",Sterol amount/total sterol: 8-DHC,SKMEL-28 cells [2]; [7],0.07± 0.01
same,Sterol amount/total sterol: zymostenol,SKMEL-28 cells [2]; [7],0.29± 0.09
same,"LC3-II protein, densitometry relative to control",KG1 cells,0.8
